{
  "source": "patent US8697629B2",
  "about": "“Modulation of intracellular signaling” (Angstrom Pharmaceuticals, Inc., priority 2010, dated 2014)",
  "test_system": "SKOV3 cells",
  "experiment": "Boyden chamber chemotaxis/migration of SKOV3 cells",
  "type": "cell-based",
  "method": "A2780 (FIG. 10a) and SKOV3 (FIG. 10b) cells were incubated with the indicated concentrations of Å6 peptide for 30 min at 37° C. Aliquots representing 6,000 cells were placed on quadruplicate, CnI-coated filters (8 μm pores) in Boyden chambers and the cells allowed to migrate overnight in response to 10 ng/ml VEGF in NIH3T3-conditioned media containing the indicated concentrations of Å6. Upon completion of migration, the apical surfaces of the membranes were wiped clean and the migrating cells on the basal surface were stained with Geimsa stain and the cells present in representative fields of the membranes counted. Data represent the averages+/−standard deviations obtained from the replicate filters. […] This provides further confirmation that CD44 is the target for the Å6 peptide.\nSKOV3 cells are harvested by trypsinization and washed once with RPMI−0.5% BSA. Next, the cells are re-suspended in RPMI+0.5% BSA @ 6E4/mL (6000 cells/100 μL). The peptide is pre-treated with 500 μL of cells added to 500 μL peptide NASAPPEE (2× concentration, final conc. at 100, 10, 1, 0.1, 0.01, 0.001 uM) and the mixture incubated 30 minutes at 37° C., under 5% CO2. The Boyden chamber is assembled by: Placing in the bottom chambers: 220 μL of serum/BSA free DMEM or NIH3T3CM+10 ng/ml VEGF or NIH3T3CM+10 ng/ml VEGF+peptide. Place 8 μm filters on the top of the bottom chambers. The 8 μm filters are coated with 1 mg/ml collagen I at 4° C. overnight, washed with PBS twice, air dry before use. Add 200 μL of cells with or without peptide pretreatment to the top of Boyden chamber. Note that the peptide is in both top and bottom chambers. Cells migrate overnight at 37° C., under 5% CO2 in incubator. Next, Boyden chambers are disassembled the and filters collected. The cells on the filters after collection are treated with −20° C. methanol for 3 minutes at room temperature and stained with 30% Geimsa for 7 minutes at room temperature, and washed with water twice. The filters are mounted on slides, air dried and the cells counted.\nCell numbers were obtained by counting the cells in four fields of filters using a 40× objective. The cells migrating into the bottom chambers were also counted as follows: a) 200 μL fluid in the bottom chamber was transferred to a well of 96-well plate; b) The plate was centrifuged at 1200 rpm for 5 minutes; c) 180 μL of supernatant was removed; d) The cell pellet was resuspended with the remaining 20 μL fluid and the cells counted using a hemocytometer. […] This compares favorably to the Å6 peptide which is effective between 5 μM and 100 nM.",
  "data": [
    {"substance": "acetyl-Lys-Pro-Ser-Ser-Pro-Pro-Glu-Glu-NH2 (Ac-KPSSPPEE-NH2) [Å6]", "values": [
      {"measurement": "SKOV3 migration", "setting": "10 ng/ml VEGF in NIH3T3-conditioned media, overnight", "value": "strong inhibition"},
      {"measurement": "cell migration inhibition, lower end of effective concentration range", "setting": "SKOV3", "value": 100, "unit": "nM"},
      {"measurement": "cell migration inhibition, upper end of effective concentration range", "setting": "SKOV3", "value": 5, "unit": "µM"}
    ]}
  ]
}
